pEC50: −log10 of the molar value.

The target in the experiment is T1, human thyroid receptor beta ligand-binding domain (LBD) (Homo sapiens, UniProt P10828).
T1 construct: Thyroid receptor beta LBD was added to the plate at a final concentration of 1 nM; purchased Invitrogen
T1 sequence (P10828 217-461 limits assumed): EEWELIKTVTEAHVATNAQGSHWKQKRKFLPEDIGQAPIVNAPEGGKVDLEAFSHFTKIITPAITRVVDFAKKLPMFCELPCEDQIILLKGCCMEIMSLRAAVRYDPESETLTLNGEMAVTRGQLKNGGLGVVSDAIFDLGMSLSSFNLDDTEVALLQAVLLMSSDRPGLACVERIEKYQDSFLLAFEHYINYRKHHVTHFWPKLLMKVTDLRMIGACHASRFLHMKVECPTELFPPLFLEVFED
Description: THR Biochemical Assay (Assay 1): TR-FRET thyroid receptor beta coactivator assay. The following applies: GST-tagged thyroid receptor beta LBD 1 nM, fluorescein SRC2-2 coactivator peptide 200 nM, 1 hr at rt, TR-FRET ratio 520:495; read-out: Assay 1 (EC50, THR-beta agonist). From the text: THR Biochemical Assay (Assay 1)
The TR-FRET thyroid receptor beta coactivator assay was used with slight, optimized modifications of the manufacturer's protocol (Invitrogen). The assay uses a terbium-labeled anti-GST antibody, a glutathione-S-transferase (GST) tagged human thyroid receptor, beta or alpha, ligand-binding domain (LBD), and a fluorescein labeled SRC2-2 coactivator peptide. The antibody interacts with the LBD, where the agonist also binds, resulting in increased affinity for the SRC2-2 coactivator peptide causing energy transfer […] the acceptor fluorophore and a FRET emission shift from 495 to 520 nm. The energy transfer was detected as an increase in the fluorescence emission of the fluorescein acceptor, and a decrease in the fluorescence emission of the terbium donor. The assay was performed in a 384-well black plate in a final volume of 20 μL. Serial dilution of various test agonists was performed in DMSO (1% final DMSO concentration) and added to the test plate. Thyroid receptor beta LBD was added to the plate at a final concentration of 1 nM, followed by the mixture of the fluorescein labeled SRC2-2 coactivator peptide, and the terbium-labeled anti-GST antibody at final concentrations of 200 nM and 2 nM respectively. The assay was incubated for 1 hr at rt protected from light. The TR-FRET was then measured on a Victor multilabel reader (Perkin Elmer) using an excitation wavelength of 340 nm with emission filters of 495 nm and 520 nm. The assay was quantified by expressing a ratio (520:495) of the intensities, and the resulting activation curves; EC50 values were generated using a sigmoidal dose response (variable slope) equation in GraphPad™ Prism 8.0.
As to `CC1CC12C(=O)Nc1ccc(Oc3c(Cl)cc(-n4nc(N)c(=O)[nH]c4=O)cc3Cl)cc12` (single isomer, unassigned) [Compound 32, 6-amino-2-(3,5-dichloro-4-((2-methyl-2′-oxospiro[cyclopropane-1,3′-indolin]-5′-yl)oxy)phenyl)-1,2,4-triazine-3,5(2H,4H)-dione], the negative-log EC50 (pEC50) is more than 7.30.

As to `CC1CC12C(=O)Nc1ccc(Oc3c(Cl)cc(NC(=O)C(=O)O)cc3Cl)cc12` (single isomer, unassigned) [Compound 34, 2-((3,5-dichloro-4-((2-methyl-2′-oxospiro[cyclopropane-1,3′-indolin]-5′-yl)oxy)phenyl)amino)-2-oxoacetic acid], the pEC50 is more than 7.30.

Turning to `CC1CC12C(=O)Nc1ccc(Oc3c(Cl)cc(NC(=O)C(=O)O)cc3Cl)cc12` (single isomer, unassigned) [Compound 35, 2-((3,5-dichloro-4-((2-methyl-2′-oxospiro[cyclopropane-1,3′-indolin]-5′-yl)oxy)phenyl)amino)-2-oxoacetic acid], the pEC50 is more than 7.30.

Take `Cc1cc(OCC(=O)O)c(C)c(C)c1Cc1ccc2c(n1)C(C)(C)C(=O)N2` [Compound 1, 4-([3,3-dimethyl-2-oxo-1H-pyrrolo[3,2-b]pyridin-5-yl]methyl)-2,3,5-trimethylphenoxyacetic acid]: the negative-log EC50 (pEC50) is 6.60 to 7.30.

Turning to `Cc1cc(-n2nc(C#N)c(=O)[nH]c2=O)cc(C)c1Oc1ccc2c(c1)C1(CC1)C(=O)N2` [Compound 2, 2-(3,5-dimethyl-4-((2′-oxospiro[cyclopropane-1,3′-indolin]-5′-yl)oxy)phenyl)-3,5-dioxo-2,3,4,5-tetrahydro-1,2,4-triazine-6-carbonitrile], the pEC50 is more than 7.30.

On to `Cc1cc(-n2nc(C#N)c(=O)[nH]c2=O)cc(C)c1Oc1ccc2c(c1)C1(CCC1)C(=O)N2` [Compound 3, 2-(3,5-dimethyl-4-((2′-oxospiro[cyclobutane-1,3′-indolin]-5′-yl)oxy)phenyl)-3,5-dioxo-2,3,4,5-tetrahydro-1,2,4-triazine-6-carbonitrile], for which the negative-log EC50 (pEC50) was more than 7.30.

For the molecule `Cc1cc(-n2nc(N)c(=O)[nH]c2=O)cc(C)c1Cc1ccc2c(c1)C1(CCC1)C(=O)N2` [Compound 4, 6-amino-2-(3,5-dimethyl-4-{2′-oxo-1′H-spiro[cyclobutane-1,3′-indol]-5′-ylmethyl}phenyl)-4H-1,2,4-triazine-3,5-dione], the negative logarithm of the EC50 (pEC50) was more than 7.30.

`O=C1Nc2ccc(Oc3c(Cl)cc(-n4ncc(=O)[nH]c4=O)cc3Cl)cc2C12CCC2` [Compound 5, 2-(3,5-dichloro-4-((2′-oxospiro[cyclobutane-1,3′-indolin]-5′-yl)oxy)phenyl)-1,2,4-triazine-3,5(2H,4H)-dione]: the pEC50 is more than 7.30.

Turning to `Nc1nn(-c2cc(Cl)c(Oc3ccc4c(c3)C3(CCC3)C(=O)N4)c(Cl)c2)c(=O)[nH]c1=O` [Compound 6, 6-amino-2-(3,5-dichloro-4-((2′-oxospiro[cyclobutane-1,3′-indolin]-5′-yl)oxy)phenyl)-1,2,4-triazine-3,5(2H,4H)-dione], the pEC50 was more than 7.30.

For `Cc1cc(-n2nc(C#N)c(=O)[nH]c2=O)cc(C)c1Cc1ccc2c(c1)C1(CC(F)(F)C1)C(=O)N2` [Compound 7, 2-(4-((3,3-difluoro-2′-oxospiro[cyclobutane-1,3′-indolin]-5′-yl)methyl)-3,5-dimethylphenyl)-3,5-dioxo-2,3,4,5-tetrahydro-1,2,4-triazine-6-carbonitrile], the negative logarithm of the EC50 (pEC50) is less than 4.60.

Take `Cc1cc(-n2nc(N)c(=O)[nH]c2=O)cc(C)c1Cc1ccc2c(c1)C1(CC(F)(F)C1)C(=O)N2` [Compound 8, 6-amino-2-(4-{3,3-difluoro-2′-oxo-1′H-spiro[cyclobutane-1,3′-indol]-5′-ylmethyl}-3,5-dimethylphenyl)-4H-1,2,4-triazine-3,5-dione]: the pEC50 was less than 4.60.
